Experimental data: patent publication US10703752B2, “Integrin antagonists” (OXURION NV, priority 2018, dated 2020)
Counter-ions that a name gives are not always drawn.

Legend:
[1] = target: αvβ3 integrin receptor (Homo sapiens, UniProt P05106+P06756); assay: Competition ELISA, integrin antagonism (fibronectin ligand); conditions: fibronectin binding to coated receptor, read-out: EC50 ανβ3
Method: (§1) Suitable methods for determining EC50 values are known to the skilled person. One particular method to determine the value for a particular compound is a competition ELISA assay wherein the integrin receptor under investigation (in particular human αvβ3 integrin receptor) is coated to a multi-well plate using a 4 μg/mL solution and the wells are blocked with 5% bovine serum albumin. The fibronectin concentration to be used in the assay is determined experimentally in a separate experiment by testing the binding of various fibronectin concentrations to the coated integrin under investigation, the concentration of fibronectin for the assay being the one that gives 80% of maximal binding. The determined concentration of human fibronectin is then added to the coated and blocked wells in the presence of increasing concentrations of the compound. After 2 h incubation at 37° C., the wells are washed and the bound fibronectin is detected with the help of a specific reagent, such as a detectable anti-fibronectin antibody. Quantitative analysis of the data is then performed to determine EC50 values, i.e. the concentration of the compound that reduces fibronectin binding to the coated receptor by 50%.
(§2) The principle of the competition ELISA assays used here was as follows: (1) the integrin receptor under investigation was coated to 96-well plates and the wells were blocked, (2) an integrin ligand (fibronectin) was then added to the relevant wells in the presence of increasing concentrations of a given integrin antagonist, (3) after a defined amount of time, the wells were washed and the bound ligand was detected with the help of a specific reagent. Quantitative analysis of the data was then performed to determine EC50 values, i.e. the concentration of the integrin antagonist that reduces ligand binding to the coated receptor by 50%.

[2] = target: platelet integrin αIIbβ3 (Homo sapiens, UniProt P05106+P08514); assay: as above; conditions: fibronectin binding to coated receptor
Method: as §1, §2

[3] = target: α5β1 integrin receptor (Homo sapiens, UniProt P05556+P08648); assay: as above; conditions: fibronectin binding to coated receptor
Method: as §1, §2

[4] = target: αvβ5 integrin receptor (Homo sapiens, UniProt P06756+P18084); assay: as above; conditions: fibronectin binding to coated receptor, read-out: EC50 ανβ5
Method: as §1, §2

[5] = test system: human umbilical vein endothelial cells (HUVECs); assay: ORIS Cell Migration Assay; type: cell-based; conditions: HUVEC, fibronectin-coated plates, 24 h migration
Method: Endothelial cell wound healing is mediated by endothelial cell migration and proliferation, both critical components of the angiogenesis process, and is routinely used as a surrogate model for in vitro angiogenic potential. The ORIS™ Cell Migration Assay was used with human umbilical vein endothelial cells (HUVECs).
HUVEC cells (SCCE-001, Cat no 1000519, Merck Chemicals) were cultured in T175 flasks (Cat no 353112, falcon) in EndoGro Growth Medium (SCME-003, Merck Chemicals) and split when they reached 90-100% confluence.
For the assay, cells were used at passage 2 to 4 after thawing and at 80-90% confluency. At the beginning of the day, the fibronectin-coated Oris™ Cell Migration Assay Plates (Cat no # CMAFN.101, AMS Biotechnology) were removed from refrigeration and placed at RT for 1 h. The Oris Detection Masks were washed with ethanol and applied to the bottom of the 96-well plates, aligning the Al corner of the masks with the Al corner of the plates. Cells were harvested by trypsinization (Cat no 25300, Gibco), centrifuged at 250 g for 5 mm and suspended at 0.4·10^6 per mL in complete EndoGro growth medium. 100 μL of the cell suspension were added to the wells and the plates were incubated for 6 h at 37° C. and 5% C02 to allow cells to adhere.
At the end of the incubation, the stopper tool was washed with ethanol and used to remove the stoppers from all the wells except the reference wells. […]
Just prior to the end of the incubation, a 4 μg/mL calcein AM (Cat no 354217, Beckton Dickinson) solution was prepared in pre-warmed HBSS (Cat no 14025, Gibco). […] After incubation the fluorescence was read at 494 nm excitation and 517 nm emission wavelengths using the Flexstation and the SofiMax Pro 5.4.5 software (Molecular Devices). The fluorescence was read from the bottom of the plates with the lid on to keep them sterile. The masks were then removed and pictures were taken with the Axiovert fluorescence microscope (Zeiss) using reflected light, GFP and a 2.5× objective.

[6] = test system: RPE-choroid sclera explants; assay: Murine choroidal explant assay (vessel sprouting); type: cell-based, C57BL/6J mice; conditions: for IC50: Mus musculus, murine choroid explants in fibrin gel, 3 to 4 days, read-out: IC50 vessel outgrowth
From the text: The assay is based on a murine microvascular angiogenesis explant model, which closely mimics in viva choroidal angiogenesis. The major advantage of this organotypical culture model is that cells are kept within their normal environment, thereby preserving cell-cell interactions, while maintaining a higher level of experimental control than in animal models. The choroidal explant model or briefly EMCA model allows for rapid evaluation of new anti-angiogenic therapeutics, with the additional benefit of excluding the potential lack of exposure often encountered when testing small molecules in animal eyes. RPE-choroid sclera explants (hereinafter referred to as choroid explants) are embedded in a three-dimensional fibrinogen/fibrin gel. Addition of serum-containing medium induces extensive endothelial cell sprout outgrowth into the matrix after 3 to 4 days in culture.
All experiments were performed using 4 to 5-weeks old male C57BL/6J mice (Charles River Laboratories France), housed under standard laboratory conditions according to a normal day/night rhythm with ad libitum access to food and water. All animal experiments were approved by the Institutional Ethical Committee of KU Leuven.
After initial optimization, a general protocol was set-up. Briefly, after euthanasia of the mice using pentobarbital (200 mg/kg, IP, Dolethal, Vetoquinol) followed by cervical dislocation, eyes were immediately enucleated with curved forceps and kept in ice-cold DPBS (cat no 14190-136, Gihco). Under a stereomicroscope, the eye was placed in a drop of ice-cold DPBS, and held in place with forceps on an ice-cold petri dish. The cornea and lens were removed via a circumferential incision at the limbus (cornea-sclera boundary) using Vannas spring scissors (Fine Science Tools). Next, redundant muscles were removed from the remaining eyeball and a cut was made from the edge of the posterior chamber towards the optic nerve head. […]

| EC50 [1] [µM] | EC50 [2] [µM] | EC50 [3] [µM] | EC50 [4] [µM] | Compound | IC50 [5] [µM] | IC50 [6] [µM] | endothelial sprout formation, in words ([6]; murine choroid explants) |
| --- | --- | --- | --- | --- | --- | --- | --- |
| 0.001 to 0.01 | > 0.025 | 0.001 to 0.01 | 0.001 to 0.01 | Cc1nc(NC[C@H](NC(=O)OCCC(=O)O)C(=O)O)c(C)c(N2CCC(c3ccc4c(n3)NCCC4)CC2)n1 [cpd1, (2S)-2-{[(2-carboxyethoxy)carbonyl]amino}-3-({2,5-dimethyl-6-[4-(5,6,7,8-tetrahydro-1,8-naphthyridin-2-yl)piperidin-1-yl]pyrimidin-4-yl}amino)propanoic acid] |  |  |  |
| 0.001 to 0.01 | > 0.025 | 0.001 to 0.01 | 0.001 to 0.01 | Cc1nc(NC[C@H](NC(=O)OCC(=O)O)C(=O)O)c(C)c(N2CCC(c3ccc4c(n3)NCCC4)CC2)n1 [cpd2, (2S)-2-([(carboxymethoxy)carbonyl]amino)-3-({2,5-dimethyl-6-[4-(5,6,7,8-tetrahydro-1,8-naphthyridin-2-yl)piperidin-1-yl]pyrimidin-4-yl}amino)propanoic acid dihydrochloride] | < 1 |  |  |
| 0.001 to 0.01 | > 0.025 | 0.001 to 0.01 | 0.001 to 0.01 | Cc1nc(NC[C@H](NC(=O)OC(C)C(=O)O)C(=O)O)c(C)c(N2CCC(c3ccc4c(n3)NCCC4)CC2)n1 (stereo partly drawn) [cpd3, (2S)-2-{[(1-carboxyethoxy)carbonyl]amino}-3-({2,5-dimethyl-6-[4-(5,6,7,8-tetrahydro-1,8-naphthyridin-2-yl)piperidin-1-yl]pyrimidin-4-yl}amino)propanoic acid, dihydrochloride] | < 1 | ~1 | inhibition of vessel sprouting |
| 0.001 to 0.01 | 0.001 to 0.01 | 0.001 to 0.01 | 0.001 to 0.01 | COC(=O)CCOC(=O)N[C@@H](CNc1nc(C)nc(N2CCC(c3ccc4c(n3)NCCC4)CC2)c1C)C(=O)O [cpdA, (2S)-3-({2,5-dimethyl-6-[4-(5,6,7,8-tetrahydro-1,8-naphthyridin-2-yl)piperidin-1-yl]pyrimidin-4-yl}amino)-2-{[(3-methoxy-3-oxopropoxy)carbonyl]amino}propanoic acid trifluoro acetate, reference compound] |  |  |  |
| 0.01 to 0.025 | 0.001 to 0.01 | 0.001 to 0.01 | 0.001 to 0.01 | Cc1nc(NC[C@H](NC(=O)OCc2ccccc2)C(=O)O)c(C)c(N2CCC(c3ccc4c(n3)NCCC4)CC2)n1 [cpdB, reference compound] | < 1 | ~1 |  |
